From BindingDB's records for patent US20250388593 (Mitsubishi Tanabe Pharma, 2025)

What follows are compounds tested against T1, Protein cereblon [318-426] (UniProt Q96SW2) (assay: Measurement of Molecular Interactions Using Surface Plasmon Resonance (SPR)).
T1 construct: 318-426
Protocol: The instrument used was the Biacore T200 (manufactured by Cytiva). […] The sensor chip used was Sensor Chip SA (manufactured by Cytiva). The CRBN truncate was immobilized using the affinity between SA (streptavidin) on the sensor chip and the Avi-tag. The running buffer was a mixture of 10 mM HEPES pH 7.5, 150 mM NaCl, 1 mM TCEP, 0.005% Tween 20, and 2% DMSO. […] Contact time and dissociation time were set at 60 seconds and 120 seconds, respectively.

T1 sequence (Q96SW2 318-426): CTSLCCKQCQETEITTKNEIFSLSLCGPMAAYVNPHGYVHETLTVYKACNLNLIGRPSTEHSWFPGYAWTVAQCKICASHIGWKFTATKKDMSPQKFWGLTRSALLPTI

| Structure (SMILES) | Kd |
| --- | --- |
| CC(C)(C)OC(=O)CCCCCNc1ccc(N2CCC(N3CCCC(=O)NC3=O)C2=O)cc1 (stereo unspecified) [US20250388593, Example 302] | > 100 µM |
| CC(C)(C)OC(=O)N1CCC(c2ccc(OC3CCCCNC3=O)cc2)CC1 (stereo unspecified) [US20250388593, Example 276] | > 100 µM |
| COC(=O)C(CCCCNC(=O)OCc1ccccc1)Oc1ccccc1[N+](=O)[O-] (stereo unspecified) [US20250388593, Example 66-1] | > 100 µM |
| Cn1nc(N2CC=CC(=O)NC2=O)c2ccc(C3CCN(C(=O)OC(C)(C)C)CC3)cc21 [US20250388593, Example 282] | > 100 µM |
| CC(=O)Nc1ccc2nc(N3CCCC(=O)NC3=O)sc2c1 [US20250388593, Example 119] | < 50 µM |
| CC(C)(C)OC(=O)NCCCCCCCNc1ccc(N2CCC3(CCCC(=O)NC3=O)CC2=O)cc1 (stereo unspecified) [US20250388593, Example 304] | > 100 µM |
| Cn1c(=O)n(C2CCCC(=O)NC2=O)c2cccc(CCC(=O)OC(C)(C)C)c21 (stereo unspecified) [US20250388593, Example 213] | < 50 µM |
| CC(C)(C)OC(=O)N1CCN(C(=O)CN2CCC3(CCCC(=O)NC3=O)CC2=O)CC1 (stereo unspecified) [US20250388593, Example 98] | > 100 µM |
| CN(C1CCCC(=O)NC1=O)S(=O)(=O)c1ccc(CCCCC(=O)OC(C)(C)C)cc1 (stereo unspecified) [US20250388593, Example 279] | > 100 µM |
| Cn1c(=O)n(C2CCCC(=O)NC2=O)c2ccc(C#CCCCCCC(=O)OC(C)(C)C)cc21 (stereo unspecified) [US20250388593, Example 215] | > 100 µM |
| CC(C)(C)OC(=O)CCCCCNc1cccc(C2CCCC(=O)NC2=O)c1 (stereo unspecified) [US20250388593, Example 298] | > 100 µM |
| Cn1c(=O)n(C2CCCC(=O)NC2=O)c2ccc(CCCCC(=O)OC(C)(C)C)cc21 (stereo unspecified) [US20250388593, Example 217] | < 50 µM |
| O=C1CCCC(c2cc([N+](=O)[O-])ccc2Cl)C(=O)N1 (stereo unspecified) [US20250388593, Example 63] | > 100 µM |
| CC(C)(C)OC(=O)CCc1nn(C2CCCC(=O)NC2=O)c2ccccc12 (stereo unspecified) [US20250388593, Example 137] | < 50 µM |
| Cn1c(=O)n(C2CCCC(=O)NC2=O)c2ccc(CCCCCCCC(=O)OC(C)(C)C)cc21 (stereo unspecified) [US20250388593, Example 216] | > 100 µM |
| O=C1CCCC(N2C(=O)OCC3=C2C=CC([N+](=O)[O-])C3)C(=O)N1 (stereo unspecified) [US20250388593, Example 274] | > 100 µM |
| CC(C)(C)OC(=O)CN1CCC2(CCCC(=O)NC2=O)CC1=O (stereo unspecified) [US20250388593, Example 107] | > 100 µM |
| Cn1c(=O)n(C2CCCC(=O)NC2=O)c2cccc(CCCCCCCC(=O)OC(C)(C)C)c21 (stereo unspecified) [US20250388593, Example 207] | > 100 µM |
| CC(C)(C)OC(=O)C1=CC(C2CCCC(=O)NC2=O)CC=C1 (stereo unspecified) [US20250388593, Example 60] | in the range around 75 µM |
| O=C1CCCC(C2=CC([N+](=O)[O-])CC=C2)C(=O)N1 (stereo unspecified) [US20250388593, Example 62] | > 100 µM |
| CC(C)(C)OC(=O)CCCCCNc1ccc(N2CCC3(CCCC(=O)NC3=O)CC2=O)cc1 (stereo unspecified) [US20250388593, Example 301] | > 100 µM |
